Test results reported in patent US20150224170A1 (priority 2010, published 2015).

How the values were obtained:
[1] = tested on: NFAT3; format: cell-based, rat; settings: 10 uM
[2] = tested on: Sindbis virus (SINV, TE strain); format: cell-based
[3] = tested on: SINV-infected differentiated CSM14.1 cells; format: cell-based, rat; settings: 10 uM

SMILES: CCCOc1ccccc1-c1nc2nn[nH]c2c(=O)[nH]1 [zaprinast]
- cytoplasmic NFAT3 (Western blot) [1]: remained constant at all timepoints
- effect on NFAT3 activation [1]: no effect
- nuclear NFAT3 (Western blot) [1]: remained constant at all timepoints
- viral titers / viral replication versus untreated SINV infection (in words) [2]: tended to slightly increase viral titers at most time points
- viability / survival of infected cells [3]: did not detectably affect cell survival
